Assay results reported in ChEMBL document CHEMBL1949517, “Stylissamide X, a new proline-rich cyclic octapeptide as an inhibitor of cell migration, from an Indonesian marine sponge of Stylissa sp” (Bioorg Med Chem Lett, 2012).
The source made the active and inactive calls. The calls are words filed in the database; no cut-off is given here. Where a SMILES comes first, the peptide text is derived from it.

Tests used:
[1] = Cytotoxicity against human HeLa cells assessed as cell viability at 10 uM after 24 hrs by MTT assay; assay type: cell-based; conditions: read-out: Activity
HeLa [2] = test: Anti-cell migration activity at human HeLa cells at 0.1 to 10 uM after 24 hrs by wound healing assay; assay type: functional, cell-based
HeLa [3] = test: Anti-cell migration activity at EGF-induced human HeLa cells at 0.1 to 10 uM after 24 hrs by Giemsa-staining based chemotaxicell chamber assay; assay type: functional

With `CC[C@H](C)[C@@H]1NC(=O)[C@@H]2CCCN2C(=O)[C@H]([C@@H](C)O)NC(=O)[C@H](CC(C)C)NC(=O)[C@@H]2CCCN2C(=O)[C@H](Cc2ccccc2)NC(=O)[C@H](Cc2c[nH]c3ccccc23)NC(=O)[C@@H]2CCCN2C1=O` [STYLISSAMIDE X] (cyclo(FPLTPIPW)) the viability at 24 h, 10 µM [1] was > 75%, the Activity (HeLa [2]) was “Active” and the Activity (HeLa [3]) was “Active”.
